How the values were obtained:
[1] = system: CD-1 (Crl.) derived male mice; assay: Phorbol Ester Induced Mouse Ear Edema Model; assay type: in vivo; details: topical, 6 h, vehicle not given, ear swelling 6 hours after PMA; for inhibition in vivo at 1 mg: 1 mg/ear × 2 topical
Method in brief: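 Test compounds in acetone:ethanol 1:1 were applied topically to both ears 30 min before and 15 min after PMA challenge; dexamethasone positive control followed the same schedule. Ear thickness was measured by micrometer 6 h after PMA, and percent inhibition was calculated from ear-thickness increase versus vehicle controls.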

PMA induced ear edema = PMA induced ear edema (acute skin irritation model); assay type: in vivo; details: for inhibition of PMA induced ear edema: acetone/ethanol vehicle, 5% C27, 15% dexamethasone, p<0.01
hERG-channel = hERG-channel (Homo sapiens, UniProt Q12809); assay: hERG-channel block; assay type: biochemical; details: in vitro screening
[2] = system: IL-2 secretion from PBMCs; assay: IL-2 secretion from PBMCs stimulated with PHA; assay type: cell-based, human; details: Homo sapiens, PBMC; PBMCs stimulated with PHA; read-out: IL-2 secretion IC50
Excerpt: (§1) Compounds were screened by a biochemical assay against PDE4 enzyme and cell-based cytokine release assays using PBMCs stimulated by LPS or phytohemagglutinin (PHA).

in vivo = details: shrew
[3] = system: T1, phosphodiesterase 4 (PDE4) enzyme derived from human U937 cells; assay: PDE4 enzyme activity (enzyme derived from human U937 cells); assay type: biochemical; details: biochemical assay, PDE4 enzyme derived from human U937 cells; read-out: PDE4 IC50
T1 construct: PDE4 IC50; other: biochemical assay, PDE4 enzyme derived from human U937 cells; other: PDE4 in human U937 cells
Excerpt: The structure-activity relationships of novel boron-containing anti-inflammatory agents was investigated.
as §1

[4] = Dermal application on the Göttingen minipig (plasma level, dermal irritation); assay type: in vivo; details: Göttingen, minipig, plasma, topical, 5 % ointment or cream over 15% body surface area; dermal 5% C27 ointment or cream over 15% body surface area; LLOQ=0.01 μg/ml; read-out: plasma levels of the compound
Göttingen minipig = assay: as above; assay type: in vivo; details: 5% C27 ointment or cream, after 24 hours of exposure
HepG2 = assay: Cytotoxicity against HepG2 cell line; assay type: cell-based
[5] = system: IFN-γ secretion from PBMCs; assay: IFN-γ secretion from PBMCs stimulated with PHA; assay type: cell-based, human; details: Homo sapiens, PBMC; PBMCs stimulated with PHA; read-out: IFN-γ secretion IC50
Excerpt: as §1

L929 = assay: Cytotoxicity against L929 cell line; assay type: cell-based
[6] = system: TNF-α secretion from peripheral blood mononuclear cells (PBMCs); assay: TNF-α secretion from PBMCs stimulated by LPS; assay type: cell-based, human; details: Homo sapiens, PBMC; PBMCs stimulated by LPS; read-out: TNF-α secretion IC50
Excerpt: as §1

p450 enzyme = p450 enzyme inhibition screen; assay type: in vitro ADME; details: in vitro screening
BALB/c male mice = assay: Oxazolone Induced Mouse Ear Edema Model; assay type: in vivo; details: topical, 24 h
Method in brief: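 BALB/c males (n=5) are sensitized on the abdomen with 1.5% oxazolone and challenged on the right ear 7 days later with 1% oxazolone. Compound in acetone:ethanol 1:1 is applied topically 30 min before and 15 min after challenge.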

[7] = Pharmacokinetic analysis in the rat; assay type: in vivo
[8] = system: oxazolone induced ear swelling; assay: Oxazolone induced ear swelling (allergic contact dermatitis model); assay type: in vivo; details: topical

hERG-channel, sequence (Q12809 whole entry): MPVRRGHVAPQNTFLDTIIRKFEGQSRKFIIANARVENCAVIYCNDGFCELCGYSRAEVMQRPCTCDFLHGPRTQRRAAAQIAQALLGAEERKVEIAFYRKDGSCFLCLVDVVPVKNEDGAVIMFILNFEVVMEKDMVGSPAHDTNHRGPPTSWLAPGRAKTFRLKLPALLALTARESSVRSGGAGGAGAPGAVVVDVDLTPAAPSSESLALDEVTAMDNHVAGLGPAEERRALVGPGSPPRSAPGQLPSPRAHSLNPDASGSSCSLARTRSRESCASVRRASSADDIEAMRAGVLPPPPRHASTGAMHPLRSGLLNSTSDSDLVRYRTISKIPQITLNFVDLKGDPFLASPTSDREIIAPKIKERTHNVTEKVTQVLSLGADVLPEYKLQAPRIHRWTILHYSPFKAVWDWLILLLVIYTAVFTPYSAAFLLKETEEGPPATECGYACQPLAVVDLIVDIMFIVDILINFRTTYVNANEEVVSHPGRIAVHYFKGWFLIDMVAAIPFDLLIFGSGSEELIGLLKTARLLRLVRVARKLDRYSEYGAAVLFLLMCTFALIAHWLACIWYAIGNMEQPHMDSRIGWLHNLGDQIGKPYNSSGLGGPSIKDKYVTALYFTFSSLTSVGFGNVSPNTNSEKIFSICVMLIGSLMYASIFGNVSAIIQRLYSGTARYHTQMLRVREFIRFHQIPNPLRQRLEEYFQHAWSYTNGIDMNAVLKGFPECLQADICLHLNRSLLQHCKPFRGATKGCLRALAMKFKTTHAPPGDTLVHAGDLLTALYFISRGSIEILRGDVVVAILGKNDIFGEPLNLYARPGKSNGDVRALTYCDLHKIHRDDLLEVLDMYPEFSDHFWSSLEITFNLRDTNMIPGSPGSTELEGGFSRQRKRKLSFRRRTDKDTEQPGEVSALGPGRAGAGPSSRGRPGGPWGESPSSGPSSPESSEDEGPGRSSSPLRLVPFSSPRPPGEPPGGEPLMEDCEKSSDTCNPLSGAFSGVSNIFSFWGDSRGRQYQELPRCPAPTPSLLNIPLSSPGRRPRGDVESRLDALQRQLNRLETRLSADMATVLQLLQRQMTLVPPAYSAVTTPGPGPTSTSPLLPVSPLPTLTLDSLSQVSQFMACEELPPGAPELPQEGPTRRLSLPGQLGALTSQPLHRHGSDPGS

For C[C@@H]1C[C@H]2[C@@H]3CCC4=CC(=O)C=C[C@]4(C)[C@@]3(F)[C@@H](O)C[C@]2(C)[C@@]1(O)C(=O)CO [dexamethasone, reference compound], the inhibition in vivo at 1 mg [1] was 60 to 90% and the “inhibition of PMA induced ear edema” value (PMA induced ear edema) was 73%.
In the case of N#Cc1ccc(Oc2ccc3c(c2)COB3O)cc1C#N [C27, 5-(3,4-Dicyanophenoxy)-1,3-dihydro-1-hydroxy-2,1-benzoxaborole], the hERG inhibition (hERG-channel) is reported as “no significant”, the IC50 [2] is reported as 180 nM and the Cmax (in vivo) is reported as 12400 ng/mL. For the same compound, the IC50 [3] was 60 nM, the concentration at 24 h [4] was less than 10 ng/mL and the dermal irritation (Göttingen minipig) was “no dermal irritation”. For the same compound, the inhibition in vivo at 1 mg [1] was 60 to 90%, the inhibition in vivo at 3 mg ([1]; 3 mg/ear × 2 topical) was 60 to 90% and the cytotoxicity (HepG2) was greater than 100 micro M. It also gave an IC50 [5] of 220 nM, a cytotoxicity (L929) greater than 100 micro M and an IC50 [6] of 160 nM. For the same compound, the p450 enzyme inhibition (p450 enzyme) was “no significant”, the “inhibition of PMA induced ear edema” value (PMA induced ear edema) was 82% and the “lowest active concentration in PMA ear edema model” value (PMA induced ear edema; ointment vehicle) was 0.01%. The inhibition in vivo at 3 mg (BALB/c male mice) was 40 to 60%, the “mean plasma residence time” value ([7]; intravenous dosing at 20 mg/kg) was 0.64 h and the bioavailability ([7]; plasma, oral dosing at 100 mg/kg) was 7%. For the same compound, the “inhibition of oxazolone induced ear swelling” value [8] was “significantly inhibits”.
